According to patent US9802927B2, “Oxadiazine compounds and methods of use thereof” (Denali Therapeutics, Inc., priority 2015, dated 2017):

These compounds were tested on Aβ42 (assay: In vitro cell screening assay in H4 cells expressing human APP751: Aβ42 by sandwich ELISA). Conditions: compounds 0.003-10 μM, incubated overnight (16-18 h), sandwich ELISA of supernatant.
Assay type: cell-based
How it was run: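 H4 neuroglioma cells stably expressing wild-type human APP751, switched to Pro293 medium and treated with compounds (0.003-10 μM, 0.33% DMSO) for 16-18 h at 37 °C. Supernatant Aβ42 quantified by sandwich ELISA (C-terminal capture, 4G8-HRP detection, A450); EC50 by sigmoidal fit normalized to DMSO and DAPT controls.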

Compound	EC50 [nM]
COc1nc(C2=NOCC(c3cc(F)cc(F)c3)N2)ccc1-n1cnc(C)c1 (single isomer, unassigned; (+)) [Example 81B, (+)-5-(3,5-difluorophenyl)-3-(6-methoxy-5-(4-methyl-1H-imidazol-1-yl)pyridin-2-yl)-5,6-dihydro-4H-1,2,4-oxadiazine]	43.1
COc1nc(C2=NOCC(c3cn(C)c4cc(F)c(C(F)(F)F)cc34)N2)ccc1-n1cnc(C)c1 (single isomer, unassigned; (-)) [Example 104A, (−)-5-(6-fluoro-1-methyl-5-(trifluoromethyl)-1H-indol-3-yl)-3-(6-methoxy-5-(4-methyl-1H-imidazol-1-yl)pyridin-2-yl)-5,6-dihydro-4H-1,2,4-oxadiazine]	167
COc1nc(C2=NOCC(c3c[nH]c4ccccc34)N2)ccc1-n1cnc(C)c1 (single isomer, unassigned) [Example 47B, 5-(1H-indol-3-yl)-3-(6-methoxy-5-(4-methyl-1H-imidazol-1-yl)pyridin-2-yl)-5,6-dihydro-4H-1,2,4-oxadiazine]	23.1
COc1cc2c(cc1Cl)c(C1CON=C(c3ccc(-n4cnc(C)c4)c(OC)n3)N1)cn2C (single isomer, unassigned; (+)) [Example 255B, (+)-5-(5-chloro-6-methoxy-1-methyl-1H-indol-3-yl)-3-(6-methoxy-5-(4-methyl-1H-imidazol-1-yl)pyridin-2-yl)-5,6-dihydro-4H-1,2,4-oxadiazine]	9
COc1nc(C2=NOCC(c3cc4ccc(C(F)(F)F)cc4o3)N2)ccc1-n1cnc(C)c1 (single isomer, unassigned; (+)) [Example 260B, (+)-3-(6-methoxy-5-(4-methyl-1H-imidazol-1-yl)pyridin-2-yl)-5-(6-(trifluoromethyl)benzofuran-2-yl)-5,6-dihydro-4H-1,2,4-oxadiazine]	4.8
COc1nc(C2=NOCC(c3cn(C(C)C)c4cc(F)ccc34)N2)ccc1-n1cnc(C)c1 (single isomer, unassigned; (-)) [Example 219B, (−)-5-(6-fluoro-1-isopropyl-1H-indol-3-yl)-3-(6-methoxy-5-(4-methyl-1H-imidazol-1-yl)pyridin-2-yl)-5,6-dihydro-4H-1,2,4-oxadiazine]	194
COc1nc(C2=NOCC(c3cccc(C(F)(F)F)c3)N2)ccc1-n1cnc(C)c1 (single isomer, unassigned; (+)) [Example 113B, (+)-3-(6-methoxy-5-(4-methyl-1H-imidazol-1-yl)pyridin-2-yl)-5-(3-(trifluoromethyl)phenyl)-5,6-dihydro-4H-1,2,4-oxadiazine]	43
COc1nc(C2=NOCC(c3ccc(Cl)c(C(F)F)c3)N2)ccc1-n1cnc(C)c1 (single isomer, unassigned; (-)) [Example 270A, (−)-5-(4-chloro-3-(difluoromethyl)phenyl)-3-(6-methoxy-5-(4-methyl-1H-imidazol-1-yl)pyridin-2-yl)-5,6-dihydro-4H-1,2,4-oxadiazine]	418
COc1nc(C2=NOCC(c3ccc(C(C)(C)C)cc3)N2)ccc1-n1cnc(C)c1 (single isomer, unassigned; (-)) [Example 235A, (−)-5-(4-(tert-butyl)phenyl)-3-(6-methoxy-5-(4-methyl-1H-imidazol-1-yl)pyridin-2-yl)-5,6-dihydro-4H-1,2,4-oxadiazine]	763
COc1nc(C2=NOCC(c3ccccn3)N2)ccc1-n1cnc(C)c1 (single isomer, unassigned; (-)) [Example 168B, (−)-3-(6-methoxy-5-(4-methyl-1H-imidazol-1-yl)pyridin-2-yl)-5-(pyridin-2-yl)-5,6-dihydro-4H-1,2,4-oxadiazine]	> 3000
COc1nc(C2=NOCC(c3nn(C)c4ccc(Cl)cc34)N2)ccc1-n1cnc(C)c1 (single isomer, unassigned; (+)) [Example 232B, (+)-5-(5-chloro-1-methyl-1H-indazol-3-yl)-3-(6-methoxy-5-(4-methyl-1H-imidazol-1-yl)pyridin-2-yl)-5,6-dihydro-4H-1,2,4-oxadiazine]	12.9
COc1nc(C2=NOCC(c3cn(C)c4cccc(Cl)c34)N2)ccc1-n1cnc(C)c1 (single isomer, unassigned; (-)) [Example 229B, (−)-5-(4-chloro-1-methyl-1H-indol-3-yl)-3-(6-methoxy-5-(4-methyl-1H-imidazol-1-yl)pyridin-2-yl)-5,6-dihydro-4H-1,2,4-oxadiazine]	24.4
COc1nc(C2=NOCC(C3CC(F)(F)C3)N2)ccc1-n1cnc(C)c1 (single isomer, unassigned; (-)) [Example 180A, (−)-5-(3,3-difluorocyclobutyl)-3-(6-methoxy-5-(4-methyl-1H-imidazol-1-yl)pyridin-2-yl)-5,6-dihydro-4H-1,2,4-oxadiazine]	> 3000
COc1nc(C2=NOCC(c3ccc(F)c(F)c3)N2)ccc1-n1cnc(C)c1 (single isomer, unassigned; (-)) [Example 75A, (−)-5-(3,4-difluorophenyl)-3-(6-methoxy-5-(4-methyl-1H-imidazol-1-yl)pyridin-2-yl)-5,6-dihydro-4H-1,2,4-oxadiazine]	> 3000
COc1nc(C2=NOCC(C3CCCCC3)N2)ccc1-n1cnc(C)c1 (single isomer, unassigned; (+)) [Example 61B, (+)-5-cyclohexyl-3-(6-methoxy-5-(4-methyl-1H-imidazol-1-yl)pyridin-2-yl)-5,6-dihydro-4H-1,2,4-oxadiazine]	57.8
COc1nc(C2=NOCC(c3ccc(F)c(F)c3)N2)ccc1-n1cnc(C)c1 (single isomer, unassigned; (+)) [Example 75B, (+)-5-(3,4-difluorophenyl)-3-(6-methoxy-5-(4-methyl-1H-imidazol-1-yl)pyridin-2-yl)-5,6-dihydro-4H-1,2,4-oxadiazine]	92.2
COc1nc(C2=NOCC(c3ccc(F)c(Cl)c3)N2)ccc1-n1cnc(C)c1 (single isomer, unassigned; (-)) [Example 108A, (−)-5-(3-chloro-4-fluorophenyl)-3-(6-methoxy-5-(4-methyl-1H-imidazol-1-yl)pyridin-2-yl)-5,6-dihydro-4H-1,2,4-oxadiazine]	2630
COc1nc(C2=NOCC(c3cn(C)c4cc(F)c(C)cc34)N2)ccc1-n1cnc(C)c1 (single isomer, unassigned; (-)) [Example 257A, (−)-5-(6-fluoro-1,5-dimethyl-1H-indol-3-yl)-3-(6-methoxy-5-(4-methyl-1H-imidazol-1-yl)pyridin-2-yl)-5,6-dihydro-4H-1,2,4-oxadiazine]	120
COc1nc(C2=NOCC(c3cn(C)c4ccc(C(F)(F)F)cc34)N2)ccc1-n1cnc(C)c1 (single isomer, unassigned; (-)) [Example 233A, (−)-3-(6-methoxy-5-(4-methyl-1H-imidazol-1-yl)pyridin-2-yl)-5-(1-methyl-5-(trifluoromethyl)-1H-indol-3-yl)-5,6-dihydro-4H-1,2,4-oxadiazine]	94.5
COc1nc(C2=NOCC(C3CCOCC3)N2)ccc1-n1cnc(C)c1 (single isomer, unassigned; (+)) [Example 143B, (+)-3-(6-methoxy-5-(4-methyl-1H-imidazol-1-yl)pyridin-2-yl)-5-(tetrahydro-2H-pyran-4-yl)-5,6-dihydro-4H-1,2,4-oxadiazine]	2460
COc1ccc2c(c1)c(C1CON=C(c3ccc(-n4cnc(C)c4)c(OC)n3)N1)cn2C (single isomer, unassigned; (-)) [Example 250A, (−)-5-(5-methoxy-1-methyl-1H-indol-3-yl)-3-(6-methoxy-5-(4-methyl-1H-imidazol-1-yl)pyridin-2-yl)-5,6-dihydro-4H-1,2,4-oxadiazine]	202
COc1nc(C2=NOCC(c3ccccc3Cl)N2)ccc1-n1cnc(C)c1 (single isomer, unassigned) [Example 136B, 5-(2-chlorophenyl)-3-(6-methoxy-5-(4-methyl-1H-imidazol-1-yl)pyridin-2-yl)-5,6-dihydro-4H-1,2,4-oxadiazine]	775
COc1nc(C2=NOCC(c3cn(C)c4ccc(C#N)cc34)N2)ccc1-n1cnc(C)c1 (single isomer, unassigned; (-)) [Example 245A, (−)-3-(3-(6-methoxy-5-(4-methyl-1H-imidazol-1-yl)pyridin-2-yl)-5,6-dihydro-4H-1,2,4-oxadiazin-5-yl)-1-methyl-1H-indole-5-carbonitrile]	554
COc1nc(C2=NOCC(c3ccc(Cl)c(C(F)(F)F)c3)N2)ccc1-n1cnc(C)c1 (single isomer, unassigned) [Example 253B, 5-(4-chloro-3-(trifluoromethyl)phenyl)-3-(6-methoxy-5-(4-methyl-1H-imidazol-1-yl)pyridin-2-yl)-5,6-dihydro-4H-1,2,4-oxadiazine]	8.4
COc1cccc(C2CON=C(c3ccc(-n4cnc(C)c4)c(OC)n3)N2)c1 (single isomer, unassigned; (+)) [Example 145B, (+)-3-(6-methoxy-5-(4-methyl-1H-imidazol-1-yl)pyridin-2-yl)-5-(3-methoxyphenyl)-5,6-dihydro-4H-1,2,4-oxadiazine]	197
COc1nc(C2=NOCC(c3cc(F)c(F)c(F)c3)N2)ccc1-n1cnc(C)c1 (single isomer, unassigned; (+)) [Example 91B, (+)-3-(6-methoxy-5-(4-methyl-1H-imidazol-1-yl)pyridin-2-yl)-5-(3,4,5-trifluorophenyl)-5,6-dihydro-4H-1,2,4-oxadiazine]	36.5
COc1cc(Cl)c2c(C3CON=C(c4ccc(-n5cnc(C)c5)c(OC)n4)N3)cn(C)c2c1 (single isomer, unassigned; (-)) [Example 261B, (−)-5-(4-chloro-6-methoxy-1-methyl-1H-indol-3-yl)-3-(6-methoxy-5-(4-methyl-1H-imidazol-1-yl)pyridin-2-yl)-5,6-dihydro-4H-1,2,4-oxadiazine]	21.2
